Laboratory results as given in patent US20260078120A1, “SUBSTITUTED PYRIDOPYRIMIDINONES” (MIRATI THERAPEUTICS, INC., priority 2022, published 2026).

What was measured:
[1] = tested on: T47D (PI3Kα H1047R mutant) cells; test: CellTiter-Glo 2.0 luminescent cell viability assay, 72 hours, T47D cells; format: cell-based; details: Homo sapiens, T47D, 72 h, T47D (PI3Kα H1047R mutant) cells, CellTiter-Glo, approximately 72 hours; read-out: T47D (H1047R mutant) Viability IC50
Summary of the method: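 Viability was measured by CellTiter-Glo 2.0 luminescence after approximately 72 h of compound exposure at 37° C. Plating was 1000 cells per well the day before dosing, with ten 1:4 dilutions from a 10 µM top concentration. Values as percent of vehicle were fitted by variable-slope log(inhibitor) regression to give IC50.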

[2] = tested on: SKBR3 (PI3Kα wild type) cells; test: CellTiter-Glo 2.0 luminescent cell viability assay, 72 hours, SKBR3 cells; format: cell-based; details: Homo sapiens, SK-BR-3, 72 h, SKBR3 (PI3Kα wild type) cells, CellTiter-Glo, approximately 72 hours; read-out: SKBR3 (WT) Viability IC50
Summary of the method: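 Viability measured via CTG luminescence following roughly 72 hours of compound exposure at 37° C. Dosing used a 10 um starting concentration diluted 1:4 over 10 points; percent-of-vehicle data fitted with a variable-slope four-parameter model for IC50.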

| Structure (SMILES) | IC50 [1] [nM] | IC50 [2] [nM] |
| --- | --- | --- |
| Cc1cc([C@@H](C)Nc2ccccc2C(=O)O)c2nc(N[C@H](C)c3cccnc3)c(C#N)c(=O)n2c1 [Example 11-51, 2-(((R)-1-(3-cyano-7-methyl-4-oxo-2-(((R)-1-(pyridin-3-yl)ethyl)amino)-4H-pyrido[1,2-a]pyrimidin-9-yl)ethyl)amino)benzoic acid] | > 10000 | > 10000 |
| C=C(C#N)CNc1nc2c([C@@H](C)Nc3ccccc3C(=O)O)cc(C)cn2c(=O)c1C [Example 11-110, (R)-2-((1-(2-((2-cyanoallyl)amino)-3,7-dimethyl-4-oxo-4H-pyrido[1,2-a]pyrimidin-9-yl)ethyl)amino)benzoic acid] | 4880 | > 10000 |
| Cc1cc([C@@H](C)Nc2ccccc2C(=O)O)c2nc(N3C4CNCC3C4)c(C)c(=O)n2c1 [Example 11-180, 2-(((1R)-1-(2-(3,6-diazabicyclo[3.1.1]heptan-6-yl)-3,7-dimethyl-4-oxo-4H-pyrido[1,2-a]pyrimidin-9-yl)ethyl)amino)benzoic acid] | > 10000 | > 10000 |
| Cc1cc([C@@H](C)Nc2ccccc2C(=O)O)c2nc(N3CCC4(CC3)CC4(F)F)c(C#N)c(=O)n2c1 [Example 11-218, (R)-2-((1-(3-cyano-2-(1,1-difluoro-6-azaspiro[2.5]octan-6-yl)-7-methyl-4-oxo-4H-pyrido[1,2-a]pyrimidin-9-yl)ethyl)amino)benzoic acid] | 177 | > 10000 |
| Cc1cc([C@@H](C)Nc2ccccc2C(=O)O)c2nc(N3CCC4(CC3)CC4)c(C#N)c(=O)n2c1 [Example 11-220, (R)-2-((1-(3-cyano-7-methyl-4-oxo-2-(6-azaspiro[2.5]octan-6-yl)-4H-pyrido[1,2-a]pyrimidin-9-yl)ethyl)amino)benzoic acid] | 117 | > 10000 |
| Cc1cc([C@@H](C)Nc2ccccc2C(=O)O)c2nc(N3CCN(c4ccc(C(F)(F)F)cc4C#N)CC3C)c(C)c(=O)n2c1 (stereo partly drawn) [Example 11-81, 2-(((1R)-1-(2-(4-(2-cyano-4-(trifluoromethyl)phenyl)-2-methylpiperazin-1-yl)-3,7-dimethyl-4-oxo-4H-pyrido[1,2-a]pyrimidin-9-yl)ethyl)amino)benzoic acid] | 579 | > 10000 |
| Cc1cc([C@@H](C)Nc2ccccc2C(=O)O)c2nc(O[C@@H]3CCOC3)c(C#N)c(=O)n2c1 [Example 11-247, 2-(((R)-1-(3-cyano-7-methyl-4-oxo-2-(((R)-tetrahydrofuran-3-yl)oxy)-4H-pyrido[1,2-a]pyrimidin-9-yl)ethyl)amino)benzoic acid] | 1540 | > 10000 |
| Cc1cc([C@@H](C)Nc2ccccc2C(=O)O)c2nc(N3CC(C(F)F)C3)c(C)c(=O)n2c1 [Example 11-105, (R)-2-((1-(2-(3-(difluoromethyl)azetidin-1-yl)-3,7-dimethyl-4-oxo-4H-pyrido[1,2-a]pyrimidin-9-yl)ethyl)amino)benzoic acid] | 255 | > 10000 |
| Cc1cc([C@@H](C)Nc2ccccc2C(=O)O)c2nc(N3Cc4ccc(C(F)F)cc4C3)c(C)c(=O)n2c1 [Example 10-128, (R)-2-((1-(2-(5-(difluoromethyl)isoindolin-2-yl)-3,7-dimethyl-4-oxo-4H-pyrido[1,2-a]pyrimidin-9-yl)ethyl)amino)benzoic acid] | 43.2 | > 10000 |
| Cc1cc([C@@H](C)Nc2ccccc2C(=O)O)c2nc(N3CCN(c4ccccc4F)CC3)c(C)c(=O)n2c1 [Example 11-440, (R)-2-((1-(2-(4-(2-fluorophenyl)piperazin-1-yl)-3,7-dimethyl-4-oxo-4H-pyrido[1,2-a]pyrimidin-9-yl)ethyl)amino)benzoic acid] | 252 | > 10000 |
| Cc1cc(C(=O)N2CCCCC2C(=O)O)c2nc(N3CCCCC3)cc(=O)n2c1 (stereo not shown) [Example 11-346, 1-(7-methyl-4-oxo-2-(piperidin-1-yl)-4H-pyrido[1,2-a]pyrimidine-9-carbonyl)piperidine-2-carboxylic acid] | > 10000 | > 10000 |
| Cc1cc([C@@H](C)Nc2ccccc2C(=O)O)c2nc(N3CCC4(C3)CC(F)(F)C4(F)F)c(C)c(=O)n2c1 (stereo partly drawn) [Example 11-436, 2-(((1R)-1-(3,7-dimethyl-4-oxo-2-(1,1,2,2-tetrafluoro-6-azaspiro[3.4]octan-6-yl)-4H-pyrido[1,2-a]pyrimidin-9-yl)ethyl)amino)benzoic acid] | 641 | > 10000 |
| Cc1cc(C(C)Nc2cc(F)ccc2C(=O)O)c2nc(N3Cc4ccccc4C3)c(C)c(=O)n2c1 (stereo not shown) [Example 11-364, 4-fluoro-2-((1-(2-(isoindolin-2-yl)-3,7-dimethyl-4-oxo-4H-pyrido[1,2-a]pyrimidin-9-yl)ethyl)amino)benzoic acid] | 5420 | > 10000 |
| Cc1cc([C@@H](C)Nc2ccccc2C(=O)O)c2nc(N[C@@H](C)C3CC3)c(C)c(=O)n2c1 [Example 11-166, 2-(((R)-1-(2-(((S)-1-cyclopropylethyl)amino)-3,7-dimethyl-4-oxo-4H-pyrido[1,2-a]pyrimidin-9-yl)ethyl)amino)benzoic acid] | 364 | > 10000 |
| Cc1cc([C@@H](C)Nc2ccccc2C(=O)O)c2nc(N3CCC(F)(F)C[C@@H]3C)c(C)c(=O)n2c1 [Example 11-92, 2-(((R)-1-(2-((S)-4,4-difluoro-2-methylpiperidin-1-yl)-3,7-dimethyl-4-oxo-4H-pyrido[1,2-a]pyrimidin-9-yl)ethyl)amino)benzoic acid] | 213 | > 10000 |
| Cc1cc([C@@H](C)Nc2cccnc2C(=O)O)c2nc(N3CCC(F)(F)CC3)c(C#N)c(=O)n2c1 [Example 10-121, (R)-3-((1-(3-cyano-2-(4,4-difluoropiperidin-1-yl)-7-methyl-4-oxo-4H-pyrido[1,2-a]pyrimidin-9-yl)ethyl)amino)picolinic acid] | 103 | > 10000 |
| Cc1cc([C@@H](C)Nc2ccccc2C(=O)O)c2nc(N3CCN(c4ccc(C(F)(F)F)cn4)CC3)c(C)c(=O)n2c1 [Example 11-434, (R)-2-((1-(3,7-dimethyl-4-oxo-2-(4-(5-(trifluoromethyl)pyridin-2-yl)piperazin-1-yl)-4H-pyrido[1,2-a]pyrimidin-9-yl)ethyl)amino)benzoic acid] | 138 | 8310 |
| Cc1cc([C@@H](C)Nc2ccccc2C(=O)O)c2nc(N3CCN(c4ccc(C#N)cc4)C(C)C3)c(C#N)c(=O)n2c1 (stereo partly drawn) [Example 11-271, 2-(((1R)-1-(3-cyano-2-(4-(4-cyanophenyl)-3-methylpiperazin-1-yl)-7-methyl-4-oxo-4H-pyrido[1,2-a]pyrimidin-9-yl)ethyl)amino)benzoic acid] | 118 | 7100 |
| Cc1cc([C@@H](C)Nc2ccccc2C(=O)O)c2nc(N3CCN(c4cccc(C#N)c4)C[C@@H]3C)c(C#N)c(=O)n2c1 [Example 11-85, 2-(((R)-1-(3-cyano-2-((S)-4-(3-cyanophenyl)-2-methylpiperazin-1-yl)-7-methyl-4-oxo-4H-pyrido[1,2-a]pyrimidin-9-yl)ethyl)amino)benzoic acid] | 404 | > 10000 |
| Cc1cc([C@@H](C)Nc2ccccc2C(=O)O)c2nc(N3CC4CC4(C(F)(F)F)C3)c(C)c(=O)n2c1 (stereo partly drawn) [Example 10-145, 2-(((1R)-1-(3,7-dimethyl-4-oxo-2-(1-(trifluoromethyl)-3-azabicyclo[3.1.0]hexan-3-yl)-4H-pyrido[1,2-a]pyrimidin-9-yl)ethyl)amino)benzoic acid] | 98.5 | > 10000 |
